From US20210300940A1 (Merck Patent GmbH, priority 2018, published 2021)

What was measured:
TLR7 = target: T1, TLR7 (Homo sapiens, UniProt Q9NYK1); assay: HEK/293 TLR7 Cell Assay; type: cell-based; conditions: TLR7/NFKb HEK cells, R848 agonist 10 uM final concentration, Steady-Glo readout; read-out: TLR7 potency
T1 construct: expressed in transfected cells; host or cells: HEK/293 cells carrying TLR7 and an NF-kB luciferase reporter
T1 sequence (Q9NYK1 27-1049): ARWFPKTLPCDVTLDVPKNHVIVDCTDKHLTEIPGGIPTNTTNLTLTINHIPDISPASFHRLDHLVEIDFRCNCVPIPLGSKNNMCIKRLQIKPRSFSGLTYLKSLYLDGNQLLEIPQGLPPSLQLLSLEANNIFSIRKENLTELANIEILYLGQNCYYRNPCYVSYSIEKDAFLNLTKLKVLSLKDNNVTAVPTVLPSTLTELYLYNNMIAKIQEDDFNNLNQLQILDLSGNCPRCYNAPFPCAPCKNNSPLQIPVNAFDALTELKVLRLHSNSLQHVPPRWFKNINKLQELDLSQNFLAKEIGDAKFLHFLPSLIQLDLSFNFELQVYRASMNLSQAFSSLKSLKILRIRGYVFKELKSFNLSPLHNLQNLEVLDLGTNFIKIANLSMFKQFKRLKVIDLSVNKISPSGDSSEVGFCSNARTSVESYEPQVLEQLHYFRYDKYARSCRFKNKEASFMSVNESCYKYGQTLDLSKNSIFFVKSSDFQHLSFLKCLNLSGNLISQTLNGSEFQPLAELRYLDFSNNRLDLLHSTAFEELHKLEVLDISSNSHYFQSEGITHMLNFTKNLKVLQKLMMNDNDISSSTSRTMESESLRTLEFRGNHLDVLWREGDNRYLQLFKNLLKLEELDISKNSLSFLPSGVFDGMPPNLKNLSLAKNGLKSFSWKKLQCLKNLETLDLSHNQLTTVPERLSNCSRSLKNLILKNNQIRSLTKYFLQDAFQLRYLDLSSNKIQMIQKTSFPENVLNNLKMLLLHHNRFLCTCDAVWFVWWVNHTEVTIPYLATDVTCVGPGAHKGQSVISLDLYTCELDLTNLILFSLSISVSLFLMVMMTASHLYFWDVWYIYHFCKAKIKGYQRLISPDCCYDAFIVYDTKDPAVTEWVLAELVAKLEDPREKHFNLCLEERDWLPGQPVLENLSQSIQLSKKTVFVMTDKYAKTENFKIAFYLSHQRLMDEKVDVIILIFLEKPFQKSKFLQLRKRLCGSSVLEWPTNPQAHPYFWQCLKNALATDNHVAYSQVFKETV
In short: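 Compounds added to HEK cells expressing TLR7 with an NFκB reporter 30 min ahead of 10 uM R848 challenge; luciferase signal (Steady-Glo) measured after 5 h, cells having been seeded 24 h earlier at 5000 per well.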

TLR8 = target: T2, TLR8 (Homo sapiens, UniProt Q9NR97); assay: HEK/293 TLR8 Cell Assay; type: cell-based; conditions: HEK cells, R848 agonist 30 uM final concentration, Steady-Glo readout; read-out: TLR8 potency
T2 construct: expressed in transfected cells; host or cells: HEK/293 reporter cells (NF-kB luciferase)
T2 sequence (Q9NR97 27-1041): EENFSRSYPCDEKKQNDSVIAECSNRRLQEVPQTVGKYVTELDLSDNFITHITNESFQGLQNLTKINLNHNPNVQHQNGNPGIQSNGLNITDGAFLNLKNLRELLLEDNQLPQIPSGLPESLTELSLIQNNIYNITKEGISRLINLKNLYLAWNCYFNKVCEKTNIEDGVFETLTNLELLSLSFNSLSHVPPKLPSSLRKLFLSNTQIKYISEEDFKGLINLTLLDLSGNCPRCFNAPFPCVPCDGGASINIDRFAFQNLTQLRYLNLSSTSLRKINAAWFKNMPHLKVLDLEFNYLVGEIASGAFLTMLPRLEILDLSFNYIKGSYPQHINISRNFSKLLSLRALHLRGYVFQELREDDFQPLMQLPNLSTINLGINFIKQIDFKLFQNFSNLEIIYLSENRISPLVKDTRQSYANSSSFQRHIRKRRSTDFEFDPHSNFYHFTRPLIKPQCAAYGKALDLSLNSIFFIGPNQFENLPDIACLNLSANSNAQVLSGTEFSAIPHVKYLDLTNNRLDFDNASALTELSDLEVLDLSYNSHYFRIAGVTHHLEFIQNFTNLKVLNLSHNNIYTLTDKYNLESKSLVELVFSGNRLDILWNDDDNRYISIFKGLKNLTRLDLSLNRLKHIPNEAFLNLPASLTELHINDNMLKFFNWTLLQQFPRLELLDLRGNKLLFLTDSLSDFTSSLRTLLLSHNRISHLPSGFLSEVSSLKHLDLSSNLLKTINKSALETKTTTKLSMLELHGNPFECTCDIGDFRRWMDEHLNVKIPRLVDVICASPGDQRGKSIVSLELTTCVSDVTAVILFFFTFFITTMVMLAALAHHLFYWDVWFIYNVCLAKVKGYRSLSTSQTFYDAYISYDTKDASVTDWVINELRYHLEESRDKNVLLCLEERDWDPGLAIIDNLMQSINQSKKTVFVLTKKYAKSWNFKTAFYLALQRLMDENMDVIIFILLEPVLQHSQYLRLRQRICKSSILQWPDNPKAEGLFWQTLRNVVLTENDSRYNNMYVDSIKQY

| Compound | IC50 (TLR7) [µM] | IC50 (TLR8) [µM] |
| --- | --- | --- |
| C[C@H]1C[C@@H](NC(=O)C[C@@H](O)CN(C)C)CN(c2ccc(C#N)c3nccnc23)C1 [Example 211, (3R)—N-[(3R,5S)-1-(8-cyanoquinoxalin-5-yl)-5-methylpiperidin-3-yl]-4-(dimethylamino)-3-hydroxybutanamide] | < 0.075 | < 0.075 |
| Cc1ncc(N2C[C@@H](C)C[C@@H](NC(=O)CC3(N)CC3)C2)c2cccnc12 [Example 121, 2-(1-aminocyclopropyl)-N-[(3R,5S)-5-methyl-1-(8-methyl-1,7-naphthyridin-5-yl)piperidin-3-yl]acetamide] | 0.075 to 0.15 | < 0.075 |
| COC[C@@H](O)CNC(=O)[C@H]1CN(c2ccc(C#N)c3nccnc23)C[C@@H](C)O1 (single isomer, unassigned) [Example 327] | < 0.075 | < 0.075 |
| CN[C@@H](CO)C(=O)N[C@@H]1C[C@H](C)CN(c2ccc(C(F)(F)F)c3ncccc23)C1 [Example 168, (S)-3-Hydroxy-2-methylamino-N-[(3R,5S)-5-methyl-1-(8-trifluoromethyl-quinolin-5-yl)-piperidin-3-yl]-propionamide] | > 0.15 | 0.075 to 0.15 |
| C[C@@H]1CN(c2ccc(C#N)c3nccnc23)C[C@H](C(=O)NCC2(F)CNC2)O1 [Example 293, (2R,6R)-4-(8-Cyano-quinoxalin-5-yl)-6-methyl-morpholine-2-carboxylic acid (3-fluoro-azetidin-3-ylmethyl)-amide] | < 0.075 | < 0.075 |
| C[C@@H]1CN(c2ccc(C#N)c3nccnc23)C[C@H](CSC[C@H](O)CO)O1 (single isomer, unassigned) [Example 229] | 0.075 to 0.15 | < 0.075 |
| CCN(C)CCNC(=O)[C@H]1CN(c2ccc(C#N)c3ncncc23)C[C@@H](C)O1 [Example 266, (2R,6R)-4-(8-Cyano-quinazolin-5-yl)-6-methyl-morpholine-2-carboxylic acid [2-(ethyl-methyl-amino)-ethyl]-amide] | 0.075 to 0.15 | > 0.15 |
| C[C@@H]1CN(c2ccc(C#N)c3nccnc23)C[C@H](C(=O)NC[C@H](O)C(F)(F)F)O1 [Example 249, (2R,6R)-4-(8-Cyano-quinoxalin-5-yl)-6-methyl-morpholine-2-carboxylic acid ((S)-3,3,3-trifluoro-2-hydroxy-propyl)-amide] | < 0.075 | < 0.075 |
| C[C@H]1C[C@@H](NC2CS(=O)(=O)C2)CN(c2ccc(C#N)c3nccnc23)C1 [Example 12, 8-[(3R,5S)-3-(1,1-Dioxo-1lambda6-thietan-3-ylamino)-5-methyl-piperidin-1-yl]-quinoxaline-5-carbonitrile] | > 0.15 | 0.075 to 0.15 |
| Cc1ncc(N2C[C@H](NC(=O)C(F)C3CCNC3)C[C@H](C(F)(F)F)C2)c2cccnc12 (stereo partly drawn) [Example 137, 2-Fluoro-N-[(3R,5S)-1-(8-methyl-[1,7]naphthyridin-5-yl)-5-trifluoromethyl-piperidin-3-yl]-2-pyrrolidin-3-yl-acetamide] | < 0.075 | < 0.075 |
| Cc1c(F)cc(N2C[C@@H](C)C[C@@H](NC(=O)CC3C4CC3CN(C)C4)C2)c2cccnc12 (stereo partly drawn) [Example 112, N-[(3R,5S)-1-(7-Fluoro-8-methyl-quinolin-5-yl)-5-methyl-piperidin-3-yl]-2-(3-methyl-3-aza-bicyclo[3.1.1]hept-6-yl)-acetamide] | < 0.075 | < 0.075 |
| C[C@@H]1CN(c2ccc(C#N)c3nccnc23)C[C@H](C(=O)NC2CCC(=O)NC2=O)O1 (stereo partly drawn) [Example 236, (2R,6R)-4-(8-Cyano-quinoxalin-5-yl)-6-methyl-morpholine-2-carboxylic acid (2,6-dioxo-piperidin-3-yl)-amide] | 0.075 to 0.15 | 0.075 to 0.15 |
| C[C@@H]1CN(c2ccc(C#N)c3nccnc23)C[C@H](C(=O)N[C@@H](CO)C(=O)O)O1 [Example 321, (S)-2-{[(2R,6R)-4-(8-Cyano-quinoxalin-5-yl)-6-methyl-morpholine-2-carbonyl]-amino}-3-hydroxy-propionic acid] | 0.075 to 0.15 | > 0.15 |
| N#Cc1ccc(N2C[C@@H](C(=O)NC[C@@H](O)CO)O[C@@H](C(F)(F)F)C2)c2nccnc12 (single isomer, unassigned) [Example 283] | > 0.15 | > 0.15 |
| CCS(=O)(=O)NCCN[C@@H]1C[C@H](C)CN(c2ccc(C(F)(F)F)c3nccnc23)C1 [Example 24] | 0.075 to 0.15 | < 0.075 |
| C[C@H]1C[C@@H](NC(=O)CC2(F)CCN(C)CC2)CN(c2ccc(C(F)(F)F)c3ncccc23)C1 [Example 83, 2-(4-fluoro-1-methylpiperidin-4-yl)-N-[(3R,5S)-5-methyl-1-[8-(trifluoromethyl)quinolin-5-yl]piperidin-3-yl]acetamide] | < 0.075 | < 0.075 |
| N#Cc1ccc(N2C[C@@H](C(F)(F)F)O[C@@H](C(=O)NC[C@@H](O)CO)C2)c2nccnc12 (single isomer, unassigned) [Example 282] | 0.075 to 0.15 | > 0.15 |
| CNC(=O)CCN[C@@H]1C[C@H](C)CN(c2ccc(C(F)(F)F)c3ncccc23)C1 [Example 56, N-Methyl-3-[(3R,5S)-5-methyl-1-(8-trifluoromethyl-quinolin-5-yl)-piperidin-3-ylamino]-propionamide] | 0.075 to 0.15 | < 0.075 |
| CC(=O)N1CCC(NC(=O)[C@H]2CN(c3ccc(C#N)c4nccnc34)C[C@@H](C)O2)CC1 [Example 242, (2R,6R)-4-(8-Cyano-quinoxalin-5-yl)-6-methyl-morpholine-2-carboxylic acid (1-acetyl-piperidin-4-yl)-amide] | < 0.075 | < 0.075 |
| C[C@@H]1CN(c2ccc(C#N)c3ncncc23)C[C@H](C(=O)NC[C@H]2CN(C)CCO2)O1 [Example 267, (2R,6R)-4-(8-Cyano-quinazolin-5-yl)-6-methyl-morpholine-2-carboxylic acid ((S)-4-methyl-morpholin-2-ylmethyl)-amide] | < 0.075 | < 0.075 |
| C[C@H]1C[C@@H](NC(=O)CC2(F)CCN(C)CC2)CN(c2ccc(C#N)c3ncncc23)C1 [Example 88, N-[(3R,5S)-1-(8-cyanoquinazolin-5-yl)-5-methylpiperidin-3-yl]-2-(4-fluoro-1-methylpiperidin-4-yl)acetamide] | < 0.075 | < 0.075 |
| C[C@@H]1CN(c2ccc(C#N)c3nccnc23)C[C@H](C(=O)NCCN2CCS(=O)(=O)CC2)O1 [Example 239, (2R,6R)-4-(8-Cyano-quinoxalin-5-yl)-6-methyl-morpholine-2-carboxylic acid [2-(1,1-dioxo-1lambda6-thiomorpholin-4-yl)-ethyl]-amide] | < 0.075 | > 0.15 |
